Measured values: ChEMBL document CHEMBL1909046, “DrugMatrix in vitro pharmacology data”

Assays:
[1] = molecular target: T1, Alpha-1D adrenergic receptor (Homo sapiens, UniProt P25100); format: cell membranes, HEK293, Membrane; conditions: for Ki: read-out: Ki; as to all read-outs here: in other assays of this panel Not Active means under 50% inhibition at 10 µM
T1 sequence (P25100 whole entry): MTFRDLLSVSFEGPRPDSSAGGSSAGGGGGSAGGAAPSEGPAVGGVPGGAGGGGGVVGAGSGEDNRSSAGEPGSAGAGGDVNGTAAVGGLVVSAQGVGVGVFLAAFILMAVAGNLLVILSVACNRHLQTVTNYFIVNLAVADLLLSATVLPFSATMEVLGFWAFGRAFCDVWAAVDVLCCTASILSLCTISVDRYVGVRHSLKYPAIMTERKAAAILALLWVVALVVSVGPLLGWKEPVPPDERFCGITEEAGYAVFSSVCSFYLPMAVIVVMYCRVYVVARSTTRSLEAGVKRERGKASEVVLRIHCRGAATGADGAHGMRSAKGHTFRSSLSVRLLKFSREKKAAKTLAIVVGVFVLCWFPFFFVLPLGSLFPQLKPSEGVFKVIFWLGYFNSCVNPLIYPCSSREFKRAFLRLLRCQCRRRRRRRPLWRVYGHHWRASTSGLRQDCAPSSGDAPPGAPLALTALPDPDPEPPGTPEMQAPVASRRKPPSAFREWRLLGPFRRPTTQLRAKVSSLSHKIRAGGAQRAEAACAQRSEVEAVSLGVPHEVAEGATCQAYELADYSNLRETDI

[2] = molecular target: Delta-type opioid receptor (Homo sapiens, UniProt P41143); format: cell membranes, HEK293, Membrane; conditions: hek293; also: in other assays of this panel Not Active means under 50% inhibition at 10 µM
[3] = molecular target: T2, Angiotensin-converting enzyme (Oryctolagus cuniculus, UniProt P12822); format: tissue-based, Lung;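 also: enzymatic inhibition of angiotensin-converting enzyme measured with FAPGG as the substrate; in other assays of this panel Not Active means under 50% inhibition at 10 µM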
T2 sequence (P12822 whole entry): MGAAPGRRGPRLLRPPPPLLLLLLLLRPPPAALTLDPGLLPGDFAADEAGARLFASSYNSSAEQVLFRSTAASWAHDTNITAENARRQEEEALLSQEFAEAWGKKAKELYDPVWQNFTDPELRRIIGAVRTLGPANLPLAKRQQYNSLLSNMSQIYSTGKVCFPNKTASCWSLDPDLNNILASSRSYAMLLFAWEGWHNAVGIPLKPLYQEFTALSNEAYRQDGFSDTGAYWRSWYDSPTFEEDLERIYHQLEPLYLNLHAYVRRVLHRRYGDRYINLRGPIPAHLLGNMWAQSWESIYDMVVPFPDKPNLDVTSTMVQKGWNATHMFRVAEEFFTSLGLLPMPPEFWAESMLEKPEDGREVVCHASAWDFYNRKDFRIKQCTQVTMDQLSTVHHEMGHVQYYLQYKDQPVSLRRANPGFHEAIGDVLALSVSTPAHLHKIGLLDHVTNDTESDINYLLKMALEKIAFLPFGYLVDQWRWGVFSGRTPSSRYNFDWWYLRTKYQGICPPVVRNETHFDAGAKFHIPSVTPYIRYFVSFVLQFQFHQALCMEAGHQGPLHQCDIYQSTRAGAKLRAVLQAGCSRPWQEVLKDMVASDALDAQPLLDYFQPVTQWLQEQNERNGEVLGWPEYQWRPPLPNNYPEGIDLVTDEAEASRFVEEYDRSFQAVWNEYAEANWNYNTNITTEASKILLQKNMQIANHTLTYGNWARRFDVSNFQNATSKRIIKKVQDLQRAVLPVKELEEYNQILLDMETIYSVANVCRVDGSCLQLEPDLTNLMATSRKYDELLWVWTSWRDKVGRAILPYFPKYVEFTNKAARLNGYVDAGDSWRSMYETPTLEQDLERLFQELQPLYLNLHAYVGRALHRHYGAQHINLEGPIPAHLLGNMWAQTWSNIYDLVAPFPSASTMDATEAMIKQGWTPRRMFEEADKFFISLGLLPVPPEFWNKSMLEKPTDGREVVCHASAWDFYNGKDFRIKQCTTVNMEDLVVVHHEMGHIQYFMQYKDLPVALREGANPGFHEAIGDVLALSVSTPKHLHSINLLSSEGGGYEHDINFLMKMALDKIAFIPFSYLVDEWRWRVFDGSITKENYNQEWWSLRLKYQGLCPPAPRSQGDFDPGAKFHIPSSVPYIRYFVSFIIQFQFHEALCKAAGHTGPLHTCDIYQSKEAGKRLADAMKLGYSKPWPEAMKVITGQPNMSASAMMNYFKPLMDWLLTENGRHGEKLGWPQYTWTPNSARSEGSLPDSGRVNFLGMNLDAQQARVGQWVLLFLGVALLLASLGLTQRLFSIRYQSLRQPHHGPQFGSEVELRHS

[4] = molecular target: T3, Cytochrome P450 1A2 (Homo sapiens, UniProt P05177); conditions: bti-tn-5b1-4; also: in other assays of this panel Not Active means under 50% inhibition at 10 µM
T3 sequence (P05177 whole entry): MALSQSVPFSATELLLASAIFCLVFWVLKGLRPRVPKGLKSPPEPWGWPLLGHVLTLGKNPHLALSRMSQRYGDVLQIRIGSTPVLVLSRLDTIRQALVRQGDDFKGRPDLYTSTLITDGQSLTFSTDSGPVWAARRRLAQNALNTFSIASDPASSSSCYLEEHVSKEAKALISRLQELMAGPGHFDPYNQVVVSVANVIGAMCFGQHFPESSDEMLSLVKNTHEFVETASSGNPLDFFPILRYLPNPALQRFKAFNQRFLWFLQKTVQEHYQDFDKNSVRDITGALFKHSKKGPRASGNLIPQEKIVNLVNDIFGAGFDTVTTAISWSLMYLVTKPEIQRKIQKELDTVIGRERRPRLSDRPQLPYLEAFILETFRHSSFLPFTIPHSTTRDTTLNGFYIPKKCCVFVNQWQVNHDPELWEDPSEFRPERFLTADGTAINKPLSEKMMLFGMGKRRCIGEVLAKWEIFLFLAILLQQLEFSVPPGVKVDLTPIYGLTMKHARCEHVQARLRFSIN

[5] = DRUGMATRIX: Tumor Necrosis Factor (TNF), Non-Selective radioligand binding (ligand: [125I] TNF-alpha); format: cell membranes, Membrane; conditions: u-937; Not Active = under 50% inhibition at 10 µM
[6] = molecular target: D(3) dopamine receptor (Homo sapiens, UniProt P35462); assay: DRUGMATRIX: Dopamine D3 radioligand binding (ligand: [3H] Spiperone); format: cell membranes, CHO, Membrane; conditions: for Ki: read-out: Ki
D(3) dopamine receptor, sequence (P35462 whole entry): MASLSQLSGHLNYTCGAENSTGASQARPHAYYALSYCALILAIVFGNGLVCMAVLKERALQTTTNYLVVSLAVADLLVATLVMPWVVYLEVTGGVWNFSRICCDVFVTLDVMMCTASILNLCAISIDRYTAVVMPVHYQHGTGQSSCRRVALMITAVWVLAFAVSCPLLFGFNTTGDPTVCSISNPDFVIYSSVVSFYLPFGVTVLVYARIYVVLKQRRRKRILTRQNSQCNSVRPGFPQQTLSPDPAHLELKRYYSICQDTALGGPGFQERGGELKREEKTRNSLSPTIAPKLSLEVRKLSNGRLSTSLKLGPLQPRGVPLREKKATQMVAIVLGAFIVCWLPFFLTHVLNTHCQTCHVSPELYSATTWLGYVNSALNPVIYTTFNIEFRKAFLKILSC

Delta-type opioid receptor, sequence (P41143 whole entry): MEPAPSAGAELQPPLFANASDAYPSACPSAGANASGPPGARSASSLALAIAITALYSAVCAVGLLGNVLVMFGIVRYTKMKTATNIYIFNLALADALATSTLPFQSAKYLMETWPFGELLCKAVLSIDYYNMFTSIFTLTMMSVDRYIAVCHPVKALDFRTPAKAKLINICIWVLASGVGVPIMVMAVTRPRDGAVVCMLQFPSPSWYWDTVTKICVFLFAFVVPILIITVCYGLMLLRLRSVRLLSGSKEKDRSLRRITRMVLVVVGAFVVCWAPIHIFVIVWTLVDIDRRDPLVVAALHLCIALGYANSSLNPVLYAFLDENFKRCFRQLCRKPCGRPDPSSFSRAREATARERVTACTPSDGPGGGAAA

Row | Structure (SMILES) | IC50 ([1]; hek293) | IC50 [2] | IC50 [3] | IC50 [4] | Ki [4] | IC50 [5] | Ki [5] | IC50 ([6]; cho) | IC50 ([1]; read-out: IC50) | Ki [1] | IC50 ([6]; read-out: IC50) | Ki [6]
1 | O=C(O)CC(O)(CC(=O)O)C(=O)O [CITRIC ACID] | Not Active | Not Active | Not Active | Not Active | Not Active | Not Active | Not Active | Not Active |  |  |  | 
2 | CC(C)NCC(O)c1ccccc1Cl (configuration not stated) [CLORPRENALINE] | Not Active | Not Active | Not Active | Not Active | Not Active | Not Active | Not Active | Not Active |  |  |  | 
3 | CN1CCN(C(c2ccccc2)c2ccccc2)CC1 [CYCLIZINE] |  | Not Active | Not Active | Not Active | Not Active | Not Active | Not Active |  | 1210 nM | 597 nM | 2990 nM | 1020 nM
4 | CN1C[C@@H]2C[C@H]1CN2c1cc2c(cc1F)c(=O)c(C(=O)O)cn2C1CC1 [DANOFLOXACIN] | Not Active | Not Active | Not Active | Not Active | Not Active | Not Active | Not Active | Not Active |  |  |  | 
5 | COc1cccc2c1C(=O)c1c(O)c3c(c(O)c1C2=O)C[C@@](O)(C(C)=O)C[C@@H]3O[C@H]1C[C@H](N)[C@H](O)[C@H](C)O1 [DAUNORUBICIN] | Not Active | Not Active | Not Active | Not Active | Not Active | Not Active | Not Active | Not Active |  |  |  | 
6 | O=C(O)c1cc(-c2ccc(F)cc2F)ccc1O [DIFLUNISAL] | Not Active | Not Active | Not Active | Not Active | Not Active | Not Active | Not Active | Not Active |  |  |  | 
7 | C[S+](C)[O-] [DIMETHYL SULFOXIDE] | Not Active | Not Active | Not Active | Not Active | Not Active | Not Active | Not Active | Not Active |  |  |  | 
8 | CC1=NN(c2ccccc2)C(=O)C1 [EDARAVONE] | Not Active | Not Active | Not Active | Not Active | Not Active | Not Active | Not Active | Not Active |  |  |  | 
9 | CC(C)C[C@H]1C(=O)N2CCC[C@H]2[C@]2(O)O[C@](NC(=O)[C@@H]3C=C4c5cccc6[nH]cc(c56)C[C@H]4N(C)C3)(C(C)C)C(=O)N12 [ERGOCRYPTINE] |  | Not Active | Not Active | Not Active | Not Active | Not Active | Not Active |  | 48 nM | 24 nM | 0.589 nM | 0.2 nM
10 | C[C@]12CC[C@@H]3c4ccc(O)cc4CC[C@H]3[C@@H]1C[C@@H](O)[C@@H]2O [ESTRIOL] | Not Active | Not Active | Not Active | Not Active | Not Active | Not Active | Not Active | Not Active |  |  |  | 
11 | CC(O)(P(=O)(O)O)P(=O)(O)O [ETIDRONIC ACID] | Not Active | Not Active | Not Active | Not Active | Not Active | Not Active | Not Active | Not Active |  |  |  | 
12 | CN1CCN(c2c(F)cc3c(=O)c(C(=O)O)cn(CCF)c3c2F)CC1 [FLEROXACIN] | Not Active | Not Active | Not Active | Not Active | Not Active | Not Active | Not Active | Not Active |  |  |  | 
13 | O=c1[nH]c(=O)n([C@H]2C[C@H](O)[C@@H](CO)O2)cc1F [FLOXURIDINE] | Not Active | Not Active | Not Active | Not Active | Not Active | Not Active | Not Active | Not Active |  |  |  | 
14 | COC(=O)Nc1nc2cc(C(=O)c3ccc(F)cc3)ccc2[nH]1 [FLUBENDAZOLE] | Not Active | Not Active | Not Active | Not Active | Not Active | Not Active | Not Active | Not Active |  |  |  | 
15 | CC(=O)OCC(=O)[C@@]1(O)CC[C@H]2[C@@H]3CCC4=CC(=O)CC[C@]4(C)[C@@]3(F)[C@@H](O)C[C@@]21C [FLUDROCORTISONE ACETATE] | Not Active | Not Active | Not Active | Not Active | Not Active | Not Active | Not Active | Not Active |  |  |  | 
16 | CCOC(=O)c1ncn2c1CN(C)C(=O)c1cc(F)ccc1-2 [FLUMAZENIL] | Not Active | Not Active | Not Active | Not Active | Not Active | Not Active | Not Active | Not Active |  |  |  | 
17 | O=C(O)P(=O)(O)O [FOSCARNET] | Not Active | Not Active | Not Active | Not Active | Not Active | Not Active | Not Active | Not Active |  |  |  | 
18 | Cc1ccc(C)c(OCCCC(C)(C)C(=O)O)c1 [GEMFIBROZIL] | Not Active | Not Active | Not Active | Not Active | Not Active | Not Active | Not Active | Not Active |  |  |  | 
19 | O=c1c(-c2ccc(O)cc2)coc2cc(O)cc(O)c12 [GENISTEIN] | Not Active | Not Active | Not Active | Not Active | Not Active | Not Active | Not Active | Not Active |  |  |  | 
20 | CCC1=C(C)CN(C(=O)NCCc2ccc(S(=O)(=O)NC(=O)N[C@H]3CC[C@H](C)CC3)cc2)C1=O [GLIMEPIRIDE] | Not Active | Not Active | Not Active | Not Active | Not Active | Not Active | Not Active | Not Active |  |  |  | 
21 | Nc1cc(-c2ccncc2)c[nH]c1=O [INAMRINONE] | Not Active | Not Active | Not Active | Not Active | Not Active | Not Active | Not Active | Not Active |  |  |  | 
